Experimental data published in patent US12410133B2, “Crystalline (r)-5-carbamoylpyridin-3-yl-2-methyl-4-(3-(trifluoromethoxy)benzyl)piperazine-1-carboxylate, compositions and methods of use thereof” (Celgene Corporation, priority 2018, dated 2025).
Converted amounts (≈) assume the structure as drawn.

Experiments:
physchem = conditions: thermodynamic from solid
[1] = Log D7.4 by shake-flask method (pH 7.4 phosphate buffer and n-octanol); type: physicochemical; conditions: n-octanol/pH 7.4 phosphate buffer
Procedure: (§1) A summary of baseline solid state characterization results of crystalline (R)-5-carbamoylpyridin-3-yl-2-methyl-4-(3-(trifluoromethoxy)benzyl)piperazine-1-carboxylate Form A, including pKa, partition coefficient (log D7.4) measurement and 2-hrs equilibrium solubility in FaSSIF and FeSSIF (version 2) are provided herein. […] Log D7.4 was measured with the solvent system of pH 7.4 phosphate buffer and n-octanol by shake-flask method. Meanwhile, 2-hrs equilibrium solubility of (R)-5-carbamoylpyridin-3-yl-2-methyl-4-(3-(trifluoromethoxy)benzyl)piperazine-1-carboxylate in FaSSIF and FeSSIF (version 2) was measured to be 0.12 and 0.080 mg/mL.

[2] = pKa detection by Sirius T3; type: physicochemical; conditions: Sirius T3, range 2.0 to 12.0, in triplicate; read-out: Measured pKa value
Procedure: as §1

[3] = Solubility of Form A in physiologically relevant media (37° C.); type: physicochemical
[4] = Competitive slurry study of forms A to E in water; type: physicochemical; conditions: room temperature, 7 days
Procedure: A competitive slurry study of all known forms A to E was performed in water at room temperature to understand the thermodynamic stability relationship among these forms. Form A was used to saturate the water before it was filtered to obtain a near-saturated solution. Equal amounts of each form (A to E) were weighed and then mixed with the prepared near-saturated solution to form a new suspension, which was stirred magnetically (˜1000 rpm) at room temperature for 7 days.

[5] = Interconversion study: competitive slurry of Form A and B; type: physicochemical; conditions: from RT to 50° C.
Procedure: An interconversion study of crystal forms was performed. To understand the thermodynamic stability relationship between Form A and B, competitive slurry experiments were performed at RT and 50° C. in water and toluene. Prior to the study, Form A was used to saturate the corresponding solvent before it was filtered to obtain a near-saturated solution. Equal amounts of Form A and B samples were weighed and then mixed with the prepared near-saturated solution to form a new suspension, which was stirred magnetically (˜1000 rpm) at RT and 50° C.

[6] = Dynamic vapor sorption (DVS) of Form A; type: physicochemical
Procedure: Dynamic vapor sorption (DVS) was performed on a Surface Measurement Systems DVS Intrinsic. The relative humidity at 25° C. were calibrated against deliquescence point of LiCl, Mg(NO3)2, and KCl. Sample sizes were between 10-20 mg. Gas and flow rate was nitrogen, 200 mL/min; dm/dt: 0.002%/min.

[7] = 2-hrs equilibrium solubility in FaSSIF and FeSSIF (version 2); type: physicochemical; conditions: thermodynamic from solid
Procedure: as §1

**Q.** For `C[C@@H]1CN(Cc2cccc(OC(F)(F)F)c2)CCN1C(=O)Oc1cncc(C(N)=O)c1` [Form A, (R)-5-carbamoylpyridin-3-yl-2-methyl-4-(3-(trifluoromethoxy)benzyl)piperazine-1-carboxylate], which solubility (physchem; organic solvent or mixture, Approximate solubility, 1,4-dioxane, RT) is on record?
**A.** The solubility was > 22000 µg/mL.

**Q.** And the solubility (physchem; organic solvent or mixture, Approximate solubility, 2-MeTHF, RT)?
**A.** Its solubility is > 23000 µg/mL.

**Q.** What about the solubility (physchem; organic solvent or mixture, Approximate solubility, ACN, RT) of the same molecule?
**A.** Its solubility is > 24000 µg/mL.

**Q.** And the solubility (physchem; organic solvent or mixture, Approximate solubility, Acetone, RT)?
**A.** The solubility was > 17000 µg/mL.

**Q.** And the solubility (physchem; organic solvent or mixture, Approximate solubility, Anisole, RT)?
**A.** Its solubility is > 20000 µg/mL.

**Q.** And the solubility (physchem; organic solvent or mixture, Approximate solubility, CHCl3, RT)?
**A.** Its solubility is > 19000 µg/mL.

**Q.** What about the solubility (physchem; organic solvent or mixture, Approximate solubility, DCM, RT) of the same molecule?
**A.** Its solubility is > 19000 µg/mL.

**Q.** What about the solubility (physchem; organic solvent or mixture, Approximate solubility, DMSO, RT) of the same molecule?
**A.** Its solubility is > 20000 µg/mL.

**Q.** What about the solubility (physchem; organic solvent or mixture, Approximate solubility, EtOAc, RT) of the same molecule?
**A.** The solubility was > 26000 µg/mL.

**Q.** What about the solubility (physchem; organic solvent or mixture, Approximate solubility, EtOH, RT) of the same molecule?
**A.** Its solubility is > 17000 µg/mL.

**Q.** What about the solubility (physchem; organic solvent or mixture, Approximate solubility, IPA, RT) of the same molecule?
**A.** Its solubility is > 24000 µg/mL.

**Q.** What about the solubility (physchem; organic solvent or mixture, Approximate solubility, IPAC, RT) of the same molecule?
**A.** Its solubility is > 21000 µg/mL.

**Q.** And the solubility (physchem; organic solvent or mixture, Approximate solubility, MIBK, RT)?
**A.** Its solubility is > 24000 µg/mL.

**Q.** And the solubility (physchem; organic solvent or mixture, Approximate solubility, MTBE, RT)?
**A.** The solubility was 7700 to 11500 µg/mL (≈ 17.6 to 26.2 mM).

**Q.** What about the solubility (physchem; organic solvent or mixture, Approximate solubility, MeOH, RT) of the same molecule?
**A.** Its solubility is > 23000 µg/mL.

**Q.** What about the solubility (physchem; organic solvent or mixture, Approximate solubility, NMP, RT) of the same molecule?
**A.** The solubility was > 21000 µg/mL.

**Q.** And the solubility (physchem; organic solvent or mixture, Approximate solubility, THF, RT)?
**A.** Its solubility is > 26000 µg/mL.

**Q.** What about the solubility (physchem; organic solvent or mixture, Approximate solubility, n-heptane, RT) of the same molecule?
**A.** The solubility was < 900 µg/mL.

**Q.** And the solubility (physchem; organic solvent or mixture, Approximate solubility, toluene, RT)?
**A.** Its solubility is 4500 to 6000 µg/mL (≈ 10.3 to 13.7 mM).

**Q.** And the solubility (physchem; water, Approximate solubility, H2O, RT)?
**A.** The solubility was > 1000 µg/mL.

**Q.** And the logD [1]?
**A.** The logD was 3.76.

**Q.** What about the pKa [2] of the same molecule?
**A.** The pKa was 5.79.

**Q.** And the solubility ([3]; HCl/NaCl buffer pH 1.0, simulated gastric fluid, thermodynamic from solid, pH 1.0 HCl/NaCl buffer, final measured pH 1.47)?
**A.** The solubility was > 20000 µg/mL.

**Q.** What about the solubility ([3]; acetate buffer pH 4, aqueous buffer, thermodynamic from solid, pH 4 Acetate buffer, final measured pH 4.18) of the same molecule?
**A.** Its solubility is 696 µg/mL (≈ 1.59 mM).

**Q.** And the solubility ([3]; acetate buffer pH 5, aqueous buffer, thermodynamic from solid, pH 5 Acetate buffer, final measured pH 5.14)?
**A.** Its solubility is 91 µg/mL (≈ 0.208 mM).

**Q.** And the solubility ([3]; aqueous buffer, thermodynamic from solid, pH 4 (0.0001N HCl), final measured pH 7.78)?
**A.** Its solubility is 11 µg/mL (≈ 0.0251 mM).

**Q.** What about the solubility ([3]; pH 4.9, aqueous buffer, thermodynamic from solid, pH 3 (0.001N HCl), final measured pH 4.90) of the same molecule?
**A.** Its solubility is 57 µg/mL (≈ 0.13 mM).

**Q.** What about the solubility ([3]; pH 8.1, thermodynamic from solid, Water, final measured pH 8.10) of the same molecule?
**A.** The solubility was 12 µg/mL (≈ 0.0274 mM).

**Q.** What about the solubility ([3]; phosphate buffer pH 2.5, aqueous buffer, thermodynamic from solid, pH 2.5 Phosphate buffer, final measured pH 3.44) of the same molecule?
**A.** Its solubility is 4330 µg/mL (≈ 9.87 mM).

**Q.** What about the solubility ([3]; phosphate buffer pH 3, pH 4.2, aqueous buffer, thermodynamic from solid, pH 3 Phosphae buffer, final measured pH 4.20) of the same molecule?
**A.** Its solubility is 1250 µg/mL (≈ 2.85 mM).

**Q.** And the solubility ([3]; phosphate buffer pH 6.8, aqueous buffer, thermodynamic from solid, pH 6.8 Phosphate buffer, final measured pH 6.88)?
**A.** Its solubility is 7 µg/mL (≈ 0.016 mM).

**Q.** What about the solubility ([3]; phosphate buffer pH 8.0, pH 8.1, aqueous buffer, thermodynamic from solid, pH 8.0 Phosphate buffer, final measured pH 8.10) of the same molecule?
**A.** Its solubility is 5 µg/mL (≈ 0.0114 mM).

**Q.** And the solubility ([3]; simulated gastric fluid, thermodynamic from solid, SGF with pepsin, final measured pH 1.75)?
**A.** Its solubility is > 20000 µg/mL.

**Q.** And the solubility ([3]; simulated gastric fluid, thermodynamic from solid, pH 1 (0.1N HCl), final measured pH 1.48)?
**A.** Its solubility is > 20000 µg/mL.

**Q.** What about the solubility ([3]; simulated gastric fluid, thermodynamic from solid, pH 2 (0.01N HCl), final measured pH 3.55) of the same molecule?
**A.** The solubility was 3860 µg/mL (≈ 8.8 mM).

**Q.** What about the solubility ([3]; thermodynamic from solid, FaSSIF, final measured pH 6.48) of the same molecule?
**A.** The solubility was 146 µg/mL (≈ 0.333 mM).

**Q.** What about the solubility ([3]; thermodynamic from solid, FeSSIF, final measured pH 5.17) of the same molecule?
**A.** Its solubility is 1020 µg/mL (≈ 2.32 mM).

**Q.** What about the “Thermodynamic stability relationship among forms A to E” value [4] of the same molecule?
**A.** Its value is “thermodynamically the most stable form”.

**Q.** What about the “Thermodynamic stability relationship between Form A and B” value [5] of the same molecule?
**A.** The value was “thermodynamically more stable than Form B”.

**Q.** What about the “Form change after the DVS test (XRPD comparison)” value ([6]; 25° C., between 0 and 95% RH) of the same molecule?
**A.** Its value is “no form change was observed”.

**Q.** What about the “Water uptake (DVS)” value ([6]; 25° C./80% RH) of the same molecule?
**A.** Its value is 0.05%.

**Q.** What about the solubility thermodynamic at 2 h ([7]; FaSSIF (version 2), fassif) of the same molecule?
**A.** The solubility thermodynamic at 2 h was 120 µg/mL (≈ 0.274 mM).

**Q.** And the solubility thermodynamic at 2 h ([7]; FeSSIF (version 2), fessif)?
**A.** Its solubility thermodynamic at 2 h is 80 µg/mL (≈ 0.182 mM).
